Assay results: publication PMC6337594 (2018)

Assays:
[1] = system: CMA (DNA, G4) TAGGGAGGGTAGGGAGGGT; assay: gel mobility shift; conditions: 100 mM K+; 40 µM CMA, 80 µM compound
[2] = system: Tel48 (DNA, G4) TTAGGGTTAGGGTTAGGGTTAGGGTTAGGGTTAGGGTTAGGGTTAGGG; assay: CD, ligand-induced G4 formation; conditions: no K+; Tris buffer, 25 °C; 4 µM Tel48, 8 µM compound
[3] = system: biotinylated Tel48 (DNA, G4) TTAGGGTTAGGGTTAGGGTTAGGGTTAGGGTTAGGGTTAGGGTTAGGG; assay: bio-layer interferometry, kinetic; conditions: 100 mM K+; 10 mM Tris, 25 °C; two-site model, Kb = ka/kd; immobilised Tel48
[4] = system: Tel48 (DNA, G4) TTAGGGTTAGGGTTAGGGTTAGGGTTAGGGTTAGGGTTAGGGTTAGGG; assay: CD melting; conditions: 100 mM K+; 10 mM Tris-HCl pH 7.5; compound concentration not stated
[5] = system: LD12 (DNA, duplex) GCGCAATTGCGC; assay: fluorescence enhancement; pre-stained gel; conditions: 100 mM K+; 15 µM H33258, 15 µM LD12

SMILES | binding [1] | binding [2] | Kb [3] | dTm [4] | binding [5]
CN(C)c1ccc(Nc2c3ccc(NC(=O)CCN4CCCC4)cc3nc3cc(NC(=O)CCN4CCCC4)ccc23)cc1 | yes | yes | 9.84e+06 M⁻¹ | – | –
CN1CCN(c2ccc3nc(-c4ccc5nc(-c6ccc(O)cc6)[nH]c5c4)[nH]c3c2)CC1 | – | – | – | ~ 4 °C | yes
C[n+]1ccc(-c2c3nc(c(-c4cc[n+](C)cc4)c4ccc([nH]4)c(-c4cc[n+](C)cc4)c4nc(c(-c5cc[n+](C)cc5)c5ccc2[nH]5)C=C4)C=C3)cc1 | yes | yes | 1.55e+07 M⁻¹ | ~ 10 °C | –
C[n+]1ccccc1/C=C/c1ccc2[nH]c3ccc(/C=C/c4cccc[n+]4C)cc3c2c1 | yes | yes | 2.38e+06 M⁻¹ | – | –
C[n+]1ccnc(/C=C/c2ccc3[nH]c4ccc(/C=C/c5c[n+](C)ccn5)cc4c3c2)c1 | yes | – | 529000 M⁻¹ | – | –
NCCOc1cc(C(=O)Nc2cc(OCCN)c3ccccc3n2)nc(C(=O)Nc2cc(OCCN)c3ccccc3n2)c1 | – | yes | – | ~ 2 °C | –
